Our source for the Kd values is article PMC7748285, “A small molecule that mitigates bacterial infection disrupts Gram-negative cell membranes and is inhibited by cholesterol and neutral lipids” (PLoS Pathogens, 2020).

The assay has as its target T1, AcrB (Escherichia coli, UniProt P31224).
T1 construct: 4·His tag at the C-terminus
The experiment in a line: isothermal titration calorimetry (ITC) with purified AcrB, […]°C. The class given is binding.

T1 sequence (P31224 whole entry): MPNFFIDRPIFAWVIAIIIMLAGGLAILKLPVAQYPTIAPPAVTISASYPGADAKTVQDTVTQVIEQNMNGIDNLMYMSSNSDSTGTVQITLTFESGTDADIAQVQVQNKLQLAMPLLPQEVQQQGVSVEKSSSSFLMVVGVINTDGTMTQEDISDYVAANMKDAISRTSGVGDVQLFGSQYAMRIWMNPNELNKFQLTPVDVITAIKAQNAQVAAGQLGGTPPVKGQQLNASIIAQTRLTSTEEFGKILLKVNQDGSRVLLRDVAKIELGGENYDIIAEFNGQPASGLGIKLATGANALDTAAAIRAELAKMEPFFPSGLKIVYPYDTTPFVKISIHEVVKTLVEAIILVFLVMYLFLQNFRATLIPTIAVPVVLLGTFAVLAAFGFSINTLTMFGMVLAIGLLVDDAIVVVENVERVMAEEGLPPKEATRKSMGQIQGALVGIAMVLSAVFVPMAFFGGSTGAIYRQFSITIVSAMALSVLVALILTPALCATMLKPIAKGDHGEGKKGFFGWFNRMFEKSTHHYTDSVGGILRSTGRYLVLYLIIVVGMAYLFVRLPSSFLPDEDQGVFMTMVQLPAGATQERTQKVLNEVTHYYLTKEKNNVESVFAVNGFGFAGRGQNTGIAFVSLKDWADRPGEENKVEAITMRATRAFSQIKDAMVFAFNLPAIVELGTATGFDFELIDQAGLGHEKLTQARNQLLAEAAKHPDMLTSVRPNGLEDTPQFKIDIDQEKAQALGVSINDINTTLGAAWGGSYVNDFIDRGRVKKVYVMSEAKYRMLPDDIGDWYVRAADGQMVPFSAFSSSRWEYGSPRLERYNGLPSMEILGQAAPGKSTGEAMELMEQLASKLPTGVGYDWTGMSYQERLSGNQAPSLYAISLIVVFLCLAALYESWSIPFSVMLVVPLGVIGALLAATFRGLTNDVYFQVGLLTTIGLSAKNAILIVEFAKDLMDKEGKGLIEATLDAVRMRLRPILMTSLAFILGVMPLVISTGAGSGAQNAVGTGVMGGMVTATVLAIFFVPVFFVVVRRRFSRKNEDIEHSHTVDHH

Broadly, the Kd is the equilibrium constant for the complex coming apart. A higher Kd goes with lower affinity. In turn, `OC(COc1ccc(C23CC4CC(CC(C4)C2)C3)cc1)CN1CCCCC1` (stereo not shown) [JD1] returned a Kd of 520 nM.
